From PubChem BioAssay AID1963445 (Molecular Pharmacology Branch, DTP, NCI, 2024)
Values joined by “and” are separate entries in the source; they are usually repeats but may differ in a detail not shown here. Identical values can stand only once.

System: MCF7 complex spheroid growth, % test/control
Test: Anticancer human tumor MCF7 cell line growth inhibition [Asc];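 further: spheroids exposed to compounds for 7 days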;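 on viability, T/C: 100% = DMSO vehicle control wells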
Details: for viability, T/C: stronger effect = lower value
Description: Multicellular complex tumor spheroid response to apoptosis pathway targeting inhibitors Alrizomadlin, Pelcitoclax, and Dasminapant in combination with a variety of drugs and investigational agents in selected tumor cell lines
The MDM2 inhibitor alrizomadlin, the Bcl-2/Bcl-xL inhibitor pelcitoclax, and the IAPs inhibitor dasminapant were evaluated both individually and in combination with standard of care and investigational anticancer small molecules within a complex spheroid model of solid tumors. . Complex spheroids include a stromal component modeled by human endothelial cells (HUVEC) and fibroblasts modeled by human mesenchymal stem cells (MSCs). The concentration ranges selected for each drug and investigational agent were based upon clinically achievable concentrations if the clinical Cmax of the agent was known.
Compounds. The drugs and investigational agents: alrizomadlin (APG-115; NSC831270), pelcitoclax (APG-1252; NSC835773), dasminapant (APG-1387;NSC834197), TAK-243 (NSC785004), copanlisib (NSC809693), olaparib (NSC753686), talazoparib (NSC767125), cobimetinib (NSC 768068), eltanexor (KPT-8602, NSC 794443), abemaciclib (NSC 768073), sotorasib (NSC818433), adagrasib (NSC 831453), MRTX-1133 (NSC 836407), Iadademestat (ORY1001, NSC 806812), and RMC-4630 (NSC839698), were obtained from the NCI Developmental Therapeutics Program Chemical Repository. The FDA-approved anticancer drug set is available from the Developmental Therapeutics Program at https://dtp.cancer.gov/organization/dscb/obtaining/available plates.htm. […] The stock solutions were prepared in dimethyl sulfoxide (DMSO, Sigma-Aldrich, St. Louis, MO, cat. D2650) at 800-fold the tested concentration and stored at -70 degrees C prior to their use. All drugs and investigational agents were tested over a range starting from a high concentration at or near the clinical Cmax and decreasing in half-log increments. If the clinical Cmax for an agent had not been determined, the highest concentration tested was 10 microM.
The patient-derived cancer (PDC) cell lines include five colon adenocarcinomas: 186277-243-T-J2-PDC, 616215-338-R-J1-PDC, 439559-082-T-J2-PDC, 463943-066-T-J2-PDC, and 519858-162-T-J1-PDC; three pancreatic carcinomas: 323965-272-R-J2-PDC, 521955-158-R6-J3-PDC, and 521955-158-R2-J5-PDC; two uterine sarcomas: 327498-152-R-J2-PDC and 993429-296-R-J1-PDC; two rhabdomyosarcomas: 755483-174-R-J1-PDC and 772245-204-R-J1-PDC; two soft tissue sarcomas: 126254-015-R-J1-PDC and 494315-158-R-J1-PDC; two malignant fibrous histiocytomas: 317291-083-R-J1-PDC and 596521-263-R-J1-PDC; two breast carcinomas: 171881-019-R-J1-PDC and 885512-296-R-J2-PDC; and one ovarian carcinoma: 6556581-035-R-J-PDC were obtained from the NCI PDMR, (https://pdmr.cancer.gov). The established cell lines HSSY-2 synovial sarcoma (RRID:CVCL 8719), SYO-1 synovial sarcoma (RRID:CVCL_7146), MPNST malignant peripheral neural sheath tumor were obtained from the Sloan Kettering Institute. The following established cell lines were purchased from the American Type Culture Collection (ATCC, Manassas, VA), Sor the received from the NCI repository:, PANC-1 pancreatic carcinoma (CRL-1469, RRID:CVCL_0480), OVCAR-5 ovarian carcinoma (RRID:CVCL_1628), OVCAR-8 ovarian carcinoma (RRID:CVCL_1629), , MCF-7 breast carcinoma (CRL-12584, RRID:CVCL_0031), MDA-MB-231 breast carcinoma (CRL-12532, RRID:CVCL_0062), NCI-H1876 small cell lung carcinoma (CRL-5902, RRID:CVCL_1503), NCI-H510A small cell lung carcinoma (HTB-184, RRID:CVCL_1565), NCI-H1417 (CRL-5869, RRID:CVCL_1469), and NCI-H196 small cell lung carcinoma (CRL-5823, RRID:CVCL_1509). Dr. Peter Houghton (Greehey Children's Cancer Research Institute, University of Texas Health Science Center, San Antonio, TX) provided Rh-18 rhabdomyosarcoma (RRID:CVCL_1659). Pooled donor human umbilical vein endothelial cells (HUVEC, Lonza, cat. CC-2519) and human mesenchymal stem cells (hMSC, Lonza, cat. PT-2501) were purchased from Lonza (Walkersville, MD).
Cell Culture. […]

Compound: CCN1C(C(=O)NC23CCC(C(=O)O)(CC2)CC3)C(c2cccc(Cl)c2F)C2(C(=O)Nc3cc(Cl)ccc32)C12CCCCC2 (centres undefined)
- viability, T/C (compound 0.00949 µM): 102% [middle of 9 runs]
- viability, T/C (compound 0.0949 µM): 48.1% [middle of 9 runs]
- viability, T/C (compound 0.3 µM): 33.8% [middle of 9 runs]
- viability, T/C (compound 0.949 µM): 23.2% [middle of 9 runs]
- viability, T/C (compound 3 µM): 15.6% [middle of 9 runs]
- IC50 (compound alone, run of 11/07/2022): 94.5 nM [middle of 7 runs]
- IC50 (curve of compound): 70.9 nM and 108 nM

Compound: COc1c(OCCCN2CCOCC2)ccc2c3n(c(=NC(=O)c4cnc(N)nc4)nc12)CCN3 + Cc1c(S(C)(=O)=O)c(-c2cc(F)cc(N3CCN(c4ccc(NS(=O)(=O)c5ccc(NC(CCN6CCC(C(=O)OCCCP(=O)(O)O)CC6)CSc6ccccc6)c(S(=O)(=O)C(F)(F)F)c5)cc4)CC3)c2)c(-c2ccc(Cl)cc2)n1C(C)C
- IC50 (curve of first compound, second compound 0.0316 µM): 31.9 nM
- IC50 (curve of first compound, second compound 0.1 µM): 38 nM
- IC50 (curve of first compound, second compound 0.316 µM): 40 nM
- IC50 (curve of first compound, second compound 1 µM): 32.8 nM
- IC50 (curve of first compound, second compound 3.16 µM): 33 nM
- IC50 (curve of first compound, second compound 10 µM): 76.3 nM
- viability, T/C (second compound 0.0316 µM, first compound 0.00316 µM): 89.8%
- viability, T/C (second compound 0.0316 µM, first compound 0.01 µM): 73%
- viability, T/C (second compound 0.0316 µM, first compound 0.0316 µM): 48.7%
- viability, T/C (second compound 0.0316 µM, first compound 0.1 µM): 33%
- viability, T/C (second compound 0.0316 µM, first compound 0.316 µM): 12%
- viability, T/C (second compound 0.0316 µM, first compound 1 µM): 11.4%
- viability, T/C (second compound 0.1 µM, first compound 0.00316 µM): 77.6%
- viability, T/C (second compound 0.1 µM, first compound 0.01 µM): 69%
- viability, T/C (second compound 0.1 µM, first compound 0.0316 µM): 53.1%
- viability, T/C (second compound 0.1 µM, first compound 0.1 µM): 33.2%
- viability, T/C (second compound 0.1 µM, first compound 0.316 µM): 11.2%
- viability, T/C (second compound 0.1 µM, first compound 1 µM): 9.98%
- viability, T/C (second compound 0.316 µM, first compound 0.00316 µM): 72.9%
- viability, T/C (second compound 0.316 µM, first compound 0.01 µM): 72.2%
- viability, T/C (second compound 0.316 µM, first compound 0.0316 µM): 53.9%
- viability, T/C (second compound 0.316 µM, first compound 0.1 µM): 30.3%
- viability, T/C (second compound 0.316 µM, first compound 0.316 µM): 10.3%
- viability, T/C (second compound 0.316 µM, first compound 1 µM): 11.9%
- viability, T/C (second compound 1 µM, first compound 0.00316 µM): 73.6%
- viability, T/C (second compound 1 µM, first compound 0.01 µM): 68%
- viability, T/C (second compound 1 µM, first compound 0.0316 µM): 50.5%
- viability, T/C (second compound 1 µM, first compound 0.1 µM): 27.4%
- viability, T/C (second compound 1 µM, first compound 0.316 µM): 12.9%
- viability, T/C (second compound 1 µM, first compound 1 µM): 13.1%
- viability, T/C (second compound 3.16 µM, first compound 0.00316 µM): 76.5%
- viability, T/C (second compound 3.16 µM, first compound 0.01 µM): 64.6%
- viability, T/C (second compound 3.16 µM, first compound 0.0316 µM): 52.2%
- viability, T/C (second compound 3.16 µM, first compound 0.1 µM): 30.4%
- viability, T/C (second compound 3.16 µM, first compound 0.316 µM): 11.8%
- viability, T/C (second compound 3.16 µM, first compound 1 µM): 13.4%
- viability, T/C (second compound 10 µM, first compound 0.00316 µM): 171%
- viability, T/C (second compound 10 µM, first compound 0.01 µM): 164%
- viability, T/C (second compound 10 µM, first compound 0.0316 µM): 103%
- viability, T/C (second compound 10 µM, first compound 0.1 µM): 34.7%
- viability, T/C (second compound 10 µM, first compound 0.316 µM): 14.6%
- viability, T/C (second compound 10 µM, first compound 1 µM): 11.9%
